# Experimental data as given in ChEMBL document CHEMBL4219188, “Design, synthesis, neuroprotective, antibacterial activities and docking studies of novel thieno[2,3-d]pyrimidine-alkyne Mannich base and oxadiazole hybrids” (Bioorg Med Chem Lett, 2018).
# Legend:
# [1] = test system: Escherichia coli; test: Antibacterial activity against Escherichia coli after 24 hrs by UV-vis spectrophotometric method; format: functional
# [2] = test system: Bacillus subtilis; test: Antibacterial activity against Bacillus subtilis after 24 hrs by UV-vis spectrophotometric method; format: functional
# [3] = test system: PC-12; test: Neuroprotective activity against H2O2-induced cytotoxicity in rat PC12 cells assessed as increase in cell viability pretreated for 24 hrs followed by H2O2 addition by MTT assay; format: functional, cell-based
# [4] = test system: Staphylococcus aureus; test: Antibacterial activity against Staphylococcus aureus after 24 hrs by UV-vis spectrophotometric method; format: functional
# [5] = Cytotoxicity against rat PC12 cells assessed as cell viability at MNTC after 24 hrs by MTT assay relative to control; format: cell-based, PC-12; details: read-out: Activity
# [6] = test system: PC-12; test: Neuroprotective activity against H2O2-induced cytotoxicity in rat PC12 cells assessed as cell viability at EC50 pretreated for 24 hrs followed by H2O2 addition by MTT assay relative to control; format: functional
# [7] = test system: Escherichia coli; test: Antibacterial activity against Escherichia coli assessed as diameter of inhibition zone measured after 24 hrs by agar well diffusion method; format: functional; further: test concentration or dose not given here
# [8] = test system: Pseudomonas aeruginosa; test: Antibacterial activity against Pseudomonas aeruginosa assessed as diameter of inhibition zone measured after 24 hrs by agar well diffusion method; format: functional; further: test concentration or dose not given here
# [9] = test system: Bacillus subtilis; test: Antibacterial activity against Bacillus subtilis assessed as diameter of inhibition zone measured after 24 hrs by agar well diffusion method; format: functional; further: test concentration or dose not given here
# [10] = Cytotoxicity against rat PC12 cells after 24 hrs by MTT assay; format: cell-based, PC-12; details: for MNTC at 24 h: read-out: MNCC
# [11] = Cytotoxicity against rat PC12 cells assessed as cell viability at CC50 after 24 hrs by MTT assay relative to control; format: cell-based, PC-12; details: read-out: Activity
# [12] = test system: Pseudomonas aeruginosa; test: Antibacterial activity against Pseudomonas aeruginosa after 24 hrs by UV-vis spectrophotometric method; format: functional
# [13] = test system: Staphylococcus aureus; test: Antibacterial activity against Staphylococcus aureus assessed as diameter of inhibition zone measured after 24 hrs by agar well diffusion method; format: functional; further: test concentration or dose not given here
Compound,MIC [1] [µg/mL],MIC [2] [µg/mL],Activity [3],EC50 [3] [µg/mL],MIC [4] [µg/mL],viability at 24 h [5] [%],Activity [6] [%],diameter of the inhibition zone (DIZ) [7] [mm],diameter of the inhibition zone (DIZ) [8] [mm],diameter of the inhibition zone (DIZ) [9] [mm],CC50 at 24 h [10] [µg/mL],MNTC at 24 h [10] [µg/mL],viability at 24 h [11] [%],MIC [12] [µg/mL],diameter of the inhibition zone (DIZ) [13] [mm]
Cc1ccc(-c2nnc(-c3sc4ncnc(N5CCCCC5)c4c3C)o2)cc1,0.0138,0.0142,Dose-dependent effect,28.2,0.0404,99.5,74.98,11,12,17,161,110,49.2,0.0201,14
COc1ccc(N2CCN(CC#CCOC(=O)c3sc4ncnc(N5CCCCC5)c4c3C)CC2)cc1,0.622,0.0158,Dose-dependent effect,35.3,0.313,99.4,76.16,11,10,11,140,80,49.4,0.0614,13
COc1ccc(-c2nnc(-c3sc4ncnc(N5CCOCC5)c4c3C)o2)cc1,0.012,0.0112,Dose-dependent effect,28.2,0.0132,98.3,75.15,12,16,13,140,120,51.9,0.044,12
Cc1c(-c2nnc(-c3ccc([N+](=O)[O-])cc3)o2)sc2ncnc(N3CCCCC3)c12,0.0361,0.0641,Dose-dependent effect,11.9,0.044,99,74.78,14,17,18,145,125,49.9,0.0382,8
